Tests used:
Type in all cases: in vivo
[1] = tested on: barnyardgrass (Echinochloa crus-galli); assay: Test A pre-/postemergence greenhouse herbicide test; conditions: 0 to 100 scale (0 no effect, 100 complete control), approx. 10 d
Description: (§1) Seeds of plant species selected from barnyardgrass (Echinochloa crus-galli), crabgrass, Large (large crabgrass, Digitaria sanguinalis), foxtail, giant (giant foxtail, Setaria faberii), morningglory (Ipomoea spp.), pigweed (Amaranthus retroflexus), velvetleaf (Abutilon theophrasti), wheat (Triticum aestivum), and corn (Zea mays) were planted into a blend of loam soil and sand and treated preemergence with a directed soil spray using test chemicals formulated in a non-phytotoxic solvent mixture which included a surfactant. At the same time these species were also treated with postemergence applications of test chemicals formulated in the same manner.
(§2) Plants ranged in height from 2 to 10 cm and were in the one- to two-leaf stage for the postemergence treatment. Treated plants and untreated controls were maintained in a greenhouse for approximately 10 d, after which time all treated plants were compared to untreated controls and visually evaluated for injury. Plant response ratings, summarized in Table A, are based on a 0 to 100 scale where 0 is no effect and 100 is complete control. A dash (-) response means no test result.

corn (Zea mays) = assay: as above; conditions: 0 to 100 scale (0 no effect, 100 complete control), approx. 10 d
Description: as §1, §2

[2] = tested on: crabgrass, Large (large crabgrass, Digitaria sanguinalis); assay: as above; conditions: 0 to 100 scale (0 no effect, 100 complete control), approx. 10 d
Description: as §1, §2

[3] = tested on: foxtail, giant (giant foxtail, Setaria faberii); assay: as above; conditions: 0 to 100 scale (0 no effect, 100 complete control), approx. 10 d
Description: as §1, §2

[4] = tested on: morningglory (Ipomoea spp.); assay: as above; conditions: 0 to 100 scale (0 no effect, 100 complete control), approx. 10 d
Description: as §1, §2

[5] = tested on: pigweed (Amaranthus retroflexus); assay: as above; conditions: 0 to 100 scale (0 no effect, 100 complete control), approx. 10 d
Description: as §1, §2

[6] = tested on: velvetleaf (Abutilon theophrasti); assay: as above; conditions: 0 to 100 scale (0 no effect, 100 complete control), approx. 10 d
Description: as §1, §2

[7] = tested on: wheat (Triticum aestivum); assay: as above; conditions: 0 to 100 scale (0 no effect, 100 complete control), approx. 10 d
Description: as §1, §2

[8] = tested on: barnyardgrass (Echinochloa crus-galli); assay: Test B flooded paddy test; conditions: Flood, scale of 0 to 100, 0 is no effect, 100 is complete control, 13 to 15 d
Protocol: (§3) Plant species in the flooded paddy test selected from rice (Oryza sativa), small-flower sedge, umbrella (small-flower umbrella sedge, Cyperus difformis), ducksalad (Heteranthera limosa), and barnyardgrass (Echinochloa crus-galli) were grown to the 2-leaf stage for testing. At time of treatment, test pots were flooded to 3 cm above the soil surface, treated by application of test compounds directly to the paddy water, and then maintained at that water depth for the duration of the test. Treated plants and controls were maintained in a greenhouse for 13 to 15 d, after which time all species were compared to controls and visually evaluated. Plant response ratings, summarized in Table B, are based on a scale of 0 to 100 where 0 is no effect and 100 is complete control. A dash (-) response means no test result.

[9] = tested on: ducksalad (Heteranthera limosa); assay: Test B flooded paddy test; conditions: Flood, scale of 0 to 100, 0 is no effect, 100 is complete control, 13 to 15 d
Protocol: as §3

rice (Oryza sativa) = assay: Test B flooded paddy test; conditions: Flood, scale of 0 to 100, 0 is no effect, 100 is complete control, 13 to 15 d
Protocol: as §3

[10] = tested on: sedge, umbrella (small-flower umbrella sedge, Cyperus difformis); assay: Test B flooded paddy test; conditions: Flood, scale of 0 to 100, 0 is no effect, 100 is complete control, 13 to 15 d
Protocol: as §3

| SMILES | Plant response rating, Barnyardgrass ([1]; Postemergence, 125 g ai/ha) | Plant response rating, Barnyardgrass ([1]; Postemergence, 500 g ai/ha) | Plant response rating, Barnyardgrass ([1]; Preemergence, 125 g ai/ha) | Plant response rating, Barnyardgrass ([1]; Preemergence, 500 g ai/ha) | Plant response rating, Corn (corn (Zea mays); Postemergence, 125 g ai/ha) | Plant response rating, Corn (corn (Zea mays); Postemergence, 500 g ai/ha) | Plant response rating, Corn (corn (Zea mays); Preemergence, 125 g ai/ha) | Plant response rating, Corn (corn (Zea mays); Preemergence, 500 g ai/ha) | Plant response rating, Crabgrass, Large ([2]; Postemergence, 125 g ai/ha) | Plant response rating, Crabgrass, Large ([2]; Postemergence, 500 g ai/ha) | Plant response rating, Crabgrass, Large ([2]; Preemergence, 125 g ai/ha) | Plant response rating, Crabgrass, Large ([2]; Preemergence, 500 g ai/ha) | Plant response rating, Foxtail, Giant ([3]; Postemergence, 125 g ai/ha) | Plant response rating, Foxtail, Giant ([3]; Postemergence, 500 g ai/ha) | Plant response rating, Foxtail, Giant ([3]; Preemergence, 125 g ai/ha) | Plant response rating, Foxtail, Giant ([3]; Preemergence, 500 g ai/ha) | Plant response rating, Morningglory ([4]; Postemergence, 125 g ai/ha) | Plant response rating, Morningglory ([4]; Postemergence, 500 g ai/ha) | Plant response rating, Morningglory ([4]; Preemergence, 125 g ai/ha) | Plant response rating, Morningglory ([4]; Preemergence, 500 g ai/ha) | other results |
| --- | --- | --- | --- | --- | --- | --- | --- | --- | --- | --- | --- | --- | --- | --- | --- | --- | --- | --- | --- | --- | --- |
| Cc1cc(Oc2ccnc(C(F)(F)F)c2)nn(-c2ccc(F)cc2)c1=O [Compound 13] | 10 | 60 | 0 | 60 | 20 | 50 | 0 | 10 | 50 | 90 | 100 | 100 | 50 | 90 | 80 | 100 | 50 | 60 | 20 | 80 | Plant response rating, Pigweed ([5]; Postemergence, 125 g ai/ha): 90; Plant response rating, Pigweed ([5]; Postemergence, 500 g ai/ha): 100; Plant response rating, Pigweed ([5]; Preemergence, 125 g ai/ha): 80; Plant response rating, Pigweed ([5]; Preemergence, 500 g ai/ha): 90; Plant response rating, Velvetleaf ([6]; Postemergence, 125 g ai/ha): 60; Plant response rating, Velvetleaf ([6]; Postemergence, 500 g ai/ha): 70; Plant response rating, Velvetleaf ([6]; Preemergence, 125 g ai/ha): 10; Plant response rating, Velvetleaf ([6]; Preemergence, 500 g ai/ha): 50; Plant response rating, Wheat ([7]; Postemergence, 125 g ai/ha): 0; Plant response rating, Wheat ([7]; Postemergence, 500 g ai/ha): 20; Plant response rating, Wheat ([7]; Preemergence, 125 g ai/ha): 0; Plant response rating, Wheat ([7]; Preemergence, 500 g ai/ha): 10; Plant response rating, Barnyardgrass ([8]; 250 g ai/ha): 0; Plant response rating, Ducksalad ([9]; 250 g ai/ha): 30; Plant response rating, Rice (rice (Oryza sativa); 250 g ai/ha): 0; Plant response rating, Sedge, Umbrella ([10]; 250 g ai/ha): 65 |
| Cc1cc(=O)n(-c2ccccc2)nc1Oc1ccnc(C(F)(F)F)c1 [Compound 15] | 70 | 90 | 50 | 100 | 40 | 80 | 10 | 20 | 80 | 90 | 100 | 100 | 70 | 90 | 100 | 100 | 100 | 100 | 90 | 100 | Plant response rating, Pigweed ([5]; Postemergence, 125 g ai/ha): 100; Plant response rating, Pigweed ([5]; Postemergence, 500 g ai/ha): 100; Plant response rating, Pigweed ([5]; Preemergence, 125 g ai/ha): 100; Plant response rating, Pigweed ([5]; Preemergence, 500 g ai/ha): 100; Plant response rating, Velvetleaf ([6]; Postemergence, 125 g ai/ha): 70; Plant response rating, Velvetleaf ([6]; Postemergence, 500 g ai/ha): 90; Plant response rating, Velvetleaf ([6]; Preemergence, 125 g ai/ha): 30; Plant response rating, Velvetleaf ([6]; Preemergence, 500 g ai/ha): 70; Plant response rating, Wheat ([7]; Postemergence, 125 g ai/ha): 20; Plant response rating, Wheat ([7]; Postemergence, 500 g ai/ha): 60; Plant response rating, Wheat ([7]; Preemergence, 125 g ai/ha): 0; Plant response rating, Wheat ([7]; Preemergence, 500 g ai/ha): 20; Plant response rating, Barnyardgrass ([8]; 250 g ai/ha): 0; Plant response rating, Ducksalad ([9]; 250 g ai/ha): 70; Plant response rating, Rice (rice (Oryza sativa); 250 g ai/ha): 0; Plant response rating, Sedge, Umbrella ([10]; 250 g ai/ha): 70 |
| CCOc1cc(=O)n(-c2ccc(C(F)(F)F)cc2)nc1Cc1ccnc(C(F)(F)F)c1 [Compound 18] | 30 | 40 | 60 | 90 | 20 | 40 | 10 | 10 | 60 | 80 | 100 | 100 | 20 | 50 | 100 | 100 | 30 | 70 | 30 | 30 | Plant response rating, Pigweed ([5]; Postemergence, 125 g ai/ha): 90; Plant response rating, Pigweed ([5]; Postemergence, 500 g ai/ha): 100; Plant response rating, Pigweed ([5]; Preemergence, 125 g ai/ha): 100; Plant response rating, Pigweed ([5]; Preemergence, 500 g ai/ha): 100; Plant response rating, Velvetleaf ([6]; Postemergence, 125 g ai/ha): 30; Plant response rating, Velvetleaf ([6]; Postemergence, 500 g ai/ha): 80; Plant response rating, Velvetleaf ([6]; Preemergence, 125 g ai/ha): 40; Plant response rating, Velvetleaf ([6]; Preemergence, 500 g ai/ha): 40; Plant response rating, Wheat ([7]; Postemergence, 125 g ai/ha): 10; Plant response rating, Wheat ([7]; Postemergence, 500 g ai/ha): 20; Plant response rating, Wheat ([7]; Preemergence, 125 g ai/ha): 0; Plant response rating, Wheat ([7]; Preemergence, 500 g ai/ha): 20; Plant response rating, Barnyardgrass ([8]; 125 g ai/ha): 0; Plant response rating, Ducksalad ([9]; 125 g ai/ha): 0; Plant response rating, Rice (rice (Oryza sativa); 125 g ai/ha): 0; Plant response rating, Sedge, Umbrella ([10]; 125 g ai/ha): 75 |
| CCCOc1cc(=O)n(-c2ccc(C(F)(F)F)cc2)nc1Cc1ccnc(C(F)(F)F)c1 [Compound 19] | 10 | 20 | 0 | 10 | 10 | 10 | 0 | 0 | 10 | 20 | 70 | 90 | 10 | 20 | 40 | 70 | 10 | 30 | 0 | 10 | Plant response rating, Pigweed ([5]; Postemergence, 125 g ai/ha): 80; Plant response rating, Pigweed ([5]; Postemergence, 500 g ai/ha): 80; Plant response rating, Pigweed ([5]; Preemergence, 125 g ai/ha): 60; Plant response rating, Pigweed ([5]; Preemergence, 500 g ai/ha): 70; Plant response rating, Velvetleaf ([6]; Postemergence, 125 g ai/ha): 10; Plant response rating, Velvetleaf ([6]; Postemergence, 500 g ai/ha): 50; Plant response rating, Velvetleaf ([6]; Preemergence, 125 g ai/ha): 0; Plant response rating, Velvetleaf ([6]; Preemergence, 500 g ai/ha): 10; Plant response rating, Wheat ([7]; Postemergence, 125 g ai/ha): 0; Plant response rating, Wheat ([7]; Postemergence, 500 g ai/ha): 10; Plant response rating, Wheat ([7]; Preemergence, 125 g ai/ha): 0; Plant response rating, Wheat ([7]; Preemergence, 500 g ai/ha): 0; Plant response rating, Barnyardgrass ([8]; 125 g ai/ha): 0; Plant response rating, Ducksalad ([9]; 125 g ai/ha): 0; Plant response rating, Rice (rice (Oryza sativa); 125 g ai/ha): 0; Plant response rating, Sedge, Umbrella ([10]; 125 g ai/ha): 0 |

Reference: patent US10202361B2, “Pyridazinones as herbicides” (E I DU PONT DE NEMOURS AND COMPANY, priority 2014, dated 2019)
